Laboratory results from patent publication US5356926A, “3-alkyloxy-, aryloxy-, or arylalkyloxy-benzo [β]thiophene-2-carboxamides as inhibitors of cell adhesion” (Warner-Lambert Company, priority 1993, dated 1994).

Assays:
5-Lipoxygenase [1] = target: T1, 5-Lipoxygenase (Rattus norvegicus, UniProt P12527); experiment: ARBL: 5-lipoxygenase (LTB4) in RBL-1 cells; type: cell-based; set-up: endogenous in cells; host or cells: RBL-1 (rat basophilic leukemia); conditions: Table 4; ARBL/ARBC IC50 (μM) or % inhibition at 10 μM; RBL-1 cells, A23187
T1 sequence (P12527 1-673): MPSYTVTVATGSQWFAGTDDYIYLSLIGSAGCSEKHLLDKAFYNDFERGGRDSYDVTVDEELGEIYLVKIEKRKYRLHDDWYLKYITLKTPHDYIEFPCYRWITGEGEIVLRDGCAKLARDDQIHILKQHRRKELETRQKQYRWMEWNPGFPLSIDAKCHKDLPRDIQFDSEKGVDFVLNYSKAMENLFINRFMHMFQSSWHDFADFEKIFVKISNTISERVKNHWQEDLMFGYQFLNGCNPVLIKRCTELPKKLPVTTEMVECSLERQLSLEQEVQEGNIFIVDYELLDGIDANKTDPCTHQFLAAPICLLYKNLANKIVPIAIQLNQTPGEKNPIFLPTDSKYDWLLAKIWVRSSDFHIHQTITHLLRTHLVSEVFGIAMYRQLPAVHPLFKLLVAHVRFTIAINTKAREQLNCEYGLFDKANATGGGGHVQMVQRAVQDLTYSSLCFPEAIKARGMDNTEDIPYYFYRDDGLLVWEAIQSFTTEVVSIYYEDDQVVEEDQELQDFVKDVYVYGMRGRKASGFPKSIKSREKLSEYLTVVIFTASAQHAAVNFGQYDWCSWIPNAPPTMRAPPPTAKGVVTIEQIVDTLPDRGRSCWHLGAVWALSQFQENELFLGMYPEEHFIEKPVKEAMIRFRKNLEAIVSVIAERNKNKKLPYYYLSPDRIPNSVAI
Experimental: The testing methods used are described as follows:
The rat basophilic leukemia cell line (RBL-1) was obtained from the American Type Culture Collection (Rockville, Md.).
Radioimmunoassay (RIA) kits of LTB4 and PGF2α were obtained from Arnersham (Arlington Heights, IL) and Seragen (Boston, Mass.), respectively.
All tissue culture media were obtained from GIBCO (Grand Island, N.Y.).
RBL-1 cells are grown in suspension culture in Eagle's minimum essential medium supplemented with 12% fetal bovine serum at 37° C. in an incubator supplied with air-5% carbon dioxide. Cells are harvested by centrifugation. They are washed with cold phosphate-buffered saline, pH 7.4 (PBS; NaCl, 7.1 g; Na2 HPO4, 1.15 g; KH2 PO4, 0.2 g; and KCl, 0.2 g/L). Cells are finally suspended in PBS containing 1.0 mM calcium at a density of 2×10^6 cells/mL. Cells are incubated with and without test agent (in DMSO) (1% DMSO is without effect on arachidonic acid metabolism) for 10 minutes at room temperature. Calcium ionophore A23187 (5 μM) is added and cells are incubated for 7 minutes at 37° C. The reaction is stopped by chilling the tubes on ice for 10 minutes. Cells are separated by centrifugation and the supernatant is stored at -20° C. Aliquots (100 μL) are analyzed for LTB4 and PGF2α using radioimmunoassay kits as provided by the supplier.

5-Lipoxygenase [2] = target: T1, 5-Lipoxygenase; experiment: 5-lipoxygenase inhibition assay (20,000 xg supernatant of RBL cells); type: biochemical; set-up: activity contained in the 20,000 xg supernatant from cultured rat basophilic leukemia (RBL) cells; endogenous in cells; host or cells: RBL (rat basophilic leukemia) cells, 20,000 xg supernatant; conditions: Table 4, read-out: 5-LO % Inhibition at 30 μM
Experimental: PROTOCOL FOR 5-LIPOXYGENASE INHIBITION ASSAY
Incubations contained 5% (v/v) RBL 20,000 xg supernatant in assay buffer (10 mM BES, 10 mM PIPES, 1 mM EDTA, 0.75 mM CaC12, 1 mMATP, 100 mMNaCl, pH 6.8). DMSO vehicle (2% v/v) with and without inhibitors is preincubated with the enzyme for 20 minutes at 37° C. before initiating the 5-lipoxygenase catalyzed reaction by adding […] [^14 C]arachidonic acid (55.8 mCi/mmol, New England Nuclear, Boston, Mass.) dissolved in 5 μL 0,028% (v/v) aqueous NH4 OH. After 20 minutes of additional incubation at 37° C., reactions are terminated by the addition of three volumes of methanol containing 100 μg triphenylphosphine. Samples are then analyzed by HPLC with radiometric detection for 5-1ipoxygenase reaction products.
All treatments are evaluated in duplicate and percent inhibition is computed by comparing the products formed in treatment incubations to the mean product formation in the vehicle control group.

[3] = test system: human neutrophil adhesion to TNFα, IL-1α, and LPS stimulated human umbilical vein endothelial cells; experiment: Modified method: inhibition of human neutrophil adhesion to TNF-stimulated HUVEC (calcein fluorescence); type: cell-based; set-up: inhibition: dose or concentration left out as unconfirmed; conditions: for inhibition at 33.3 µM: Table 2, tested at a concentration of 33.3 μM (footnote a); for inhibition: Table 3
Source text: MODIFIED METHOD FOR DETERMINING THE INHIBITION OF HUMAN NEUTROPHIL ADHESION TO TNFα, IL-1α, AND LPS STIMULATED HUMAN UMBILICAL VEIN ENDOTHELIAL CELLS BY 3-ALKOXY-BENZO[b]THIOPHENE-2-CARBOXAMIDES
The previous assay using ^51 Cr labeled human neutrophils has been modified. The neutrophils are now labeled with the fluorescent dye calcein. The current method allows for quantification of neutrophil adherence by fluorescence spectroscopy.
Second passage HUVEC (Clonetics Corporation, San Diego, Calif., CC-2617) were seeded into Corning (Corning glass works, Corning, N.Y.) 96-well cell culture plates at approximately 5×10^3 cells/well and grown to confluency in supplemented endothelial basal medium (EBM, MCDB-131, Clonetics, 10 ng/mL EGF, 1 μg/mL hydrocortisone, 0.4% bovine brain extract, 5% Fetal Bovine Serum). One day prior to running the assay, typically 3 days postseeding, the cultures were refed with 0.2 mL/well supplemented EBM (S-EBM).
Preparation of Test Compounds
Test compounds were prepared as 10 mL stock solutions at a concentration of 1.0 mM. The compounds were initially solubilized in 0.1 mL DMSO followed by the addition of 9.9 mL S-EBM. The drug preparations were then diluted in one step to a concentration of 66.6 μM. Solubilizations and dilutions were performed in polystyrene containers.
Isolation of Human Neutrophils
Human neutrophils were isolated from anticoagulant-treated venous blood obtained from healthy volunteers according to the method of Ferrante and Thong. The cell preparations consisted of greater than 98% neutrophils.
Recombinant human tumor necrosis factor-α (TNF, Genzyme, Boston, Mass., code TNF-H) was prepared at 400 U/mL in S-EBM. Stock TNF was prepared to 20,000 U/mL in Delbecco's phosphate-buffered saline (PBS, Gibco, Grand Island N.Y.) plus 0.1% BSA and stored at -70° C. […] This was accomplished by adding 0.1 mL of 400 U/mL TNF and 0.1 mL 66.6 μM test compound. These additions were done slowly as to not disrupt the HUVEC monolayer. Each compound was tested in six wells. Unstimulated (vehicle control) and TNF-stimulated without test compound treatments were also run in each plate.
One hour prior to adding the neutrophils to the HI/VEC, neutrophils (5×10^6 /mL) were labeled for 30 minutes at 37° C. with 5 μM calcine-AM (Molecular Probes, Eugene, OR) in Hanks' balanced salt solution plus 0.45% BSA. Stock calcein was prepared to 5 mM in anhydrous DMSO and stored desiccated at -20° C. At the end of the incubation the cells were washed two times in cold HBSS and resuspended to a final concentration of 1×10^6 cells/mL in unsupplemented EBM.
Addition of Neutrophils to HUVEC
At the end of the 4-hour stimulation and immediately prior to the addition of the neutrophils to the HUVEC monolayer, the plates were washed with 0.2 mL warm unsupplemented EBM to remove TNF and drug. Neutrophils (1×10^5 cells) were slowly added to each of the treated wells and incubated for 30 minutes at 37° C. At the end of the incubation the plates were washed two times with 0.2 mL warm unsupplemented EBM followed by a final addition of 0.1 mL for plate scanning.
Determination of Relative Fluorescence
The relative fluorescence was determined using a Millipore Cytofluor 2300 system (excitation=480, emission=530, sensitivity=4).
Results were expressed as means of percent inhibition of TNF-stimulated adherence, using the following equation. [formula] […] Linear regression analysis of the means of the inhibition values were used to determine the IC50.
The compounds of Examples 36-44 in Table 2 and 45-53 in Table 3 were tested according to the modified method.

| SMILES | inhibition at 33.3 µM [3] [%] | inhibition [3] [%] | also measured |
| --- | --- | --- | --- |
| COc1ccc2sc(C(N)=O)c(OC(C)C)c2c1 [Example 1, 5-methoxy-3-(1-methylethoxy)benzo[b]thiophene-2-carboxamide] |  |  | IC50 (5-Lipoxygenase [1]): 36 µM; inhibition at 30 µM (5-Lipoxygenase [2]): 13% |
| CCOC(=O)c1ccc(NC(=O)c2sc3ccc(OC)cc3c2OC(C)C)nc1 [Example 36, Ethyl 6-[[[5-methoxy-3-(1-methylethoxy)benzo[b]thien-2-yl]carbonyl]amino]-3-pyridinecarboxylate] | 26 |  |  |
| COc1ccc2sc(C(=O)Nc3ccc(C(=O)O)cn3)c(OC(C)C)c2c1 [Example 37] | 8 |  |  |
| CCOC(=O)Cc1csc(NC(=O)c2sc3ccc(OC)cc3c2OC(C)C)n1 [Example 38, Ethyl 2-[[[5-methoxy-3-(1-methylethoxy)benzo[b]thien-2-yl]carbonyl]amino]-4-thiazoleacetate] | 72 |  |  |
| COc1ccc2sc(C(=O)Nc3nc(CC(=O)O)cs3)c(OC(C)C)c2c1 [Example 39, 2-[[[5-Methoxy-3-(1-methylethoxy)benzo[b]thien-2-yl]carbonyl]amino]-4-thiazoleacetic acid] | 26 |  |  |
| COc1ccc2sc(C(=O)Nc3ccc(C(=O)O)cc3OC)c(OC(C)C)c2c1 [Example 40, 3-Methoxy-4-[[[5-methoxy-3-(1-methylethoxy)benzo [b]thien-2-yl]carbonyl]amino]benzoic acid] | 34 |  |  |
| COc1ccc2sc(C(=O)Nc3ccc(C(=O)O)c(O)c3)c(OC(C)C)c2c1 [Example 42, 2-Hydroxy-4-[[[5-methoxy-3-(1-methylethoxy)benzo[b]thien-2-yl]carbonyl]arnino]benzoic acid] |  |  | IC50 ([3]; Table 2, footnote c not defined): 34 µM |
| CNC(=O)c1c(OC(C)C)c2cc(OC)ccc2[s+]1[O-] (centres unmarked) [Example 46, 5-Methoxy-N-methyl-3-(1-methylethoxy)benzo[b]thiophene-2-carboxamide-1-oxide] |  | 43 |  |
| COc1ccc2c(c1)c(OC(C)C)c(C(=O)NCc1ccccc1)[s+]2[O-] (centres unmarked) [Example 47, 5-Methoxy-3-(1-methylethoxy)-N-(phenylmethyl)benzo[b]thiophene-2-carboxamide-1-oxide] |  | 15 |  |
| CC(C)Oc1c(C(N)=O)[s+]([O-])c2ccc(O)cc12 (centres unmarked) [Example 49, 5-Hydroxy-3-(1-methylethoxy)benzo[b]thiophene-2-carboxaraide-1-oxide] |  | 79 |  |
| Cc1ccc2c(c1)c(OC(C)C)c(C(N)=O)[s+]2[O-] (centres unmarked) [Example 50, 5-Methyl-3-(1-methylethoxy)benzo[b]thiophene-2-carboxaraide-1-oxide] |  | 69 |  |
| COc1ccc2c(c1)c(Oc1ccccc1)c(C(N)=O)[s+]2[O-] (centres unmarked) [Example 51, 5-Methoxy-3-phenoxybenzo[b]thiophene-2-carboxamide-1-oxide] |  | 15 |  |
| COc1ccc2c(c1)c(OC)c(C(N)=O)[s+]2[O-] (centres unmarked) [Example 53, 3,5-Dimethoxybenzo[b]thiophene-2-carboxamide-1-oxide] |  | 40 |  |
